{"source": "patent US8318708B2", "about": "“Use of vitamin D receptor agonists, ligands, and precursors to treat pancreatic fibrosis” (Salk Institute for Biological Studies, priority 2007, dated 2012)", "key": {"hepatocytes": {"tested_on": "hepatocytes", "assay": "Illumina Sentrix arrays: hepatocytes treated with TGF-β1 and calcitriol (Tables 9 and 10)", "assay_type": "cell-based", "conditions": "rat hepatocytes, TGF-β1 2 ng/mL, 24 h", "experimental": "Cells were cultured and treated as described in Example 14. Gene expression was determined using Illumina Sentrix expression arrays, rat version 1, according to the manufacturer's instructions.\nTriplicate biologic replicates were assayed for each treatment."}, "primary HSCs": {"tested_on": "primary HSCs", "assay": "Illumina array: TGFβ1-treated primary rat HSCs with vitamin D3 (Table 4)", "conditions": "rat HSCs 24 h; TGFβ1 100 pM, vitamin D3 1 nM", "description": "For Illumina microarray analysis, Illumina TotalPrep RNA Amplification Kit (Ambion; Catalog # IL1791) was used with the manufacturer's instructions for the RNA amplification. […] Essentially, biotinylated cRNA was prepared according to the manufacturer's directions starting with 200 ng total RNA. Hybridization to the Illumina Sentrix RatRef-12 v.1 and Mouse RefSeq version 2 Expression BeadChips (Illumina, Inc., San Diego, Calif.), washing and scanning were performed according to the Illumina BeadStation 500× manual (revision C). […] RNA is isolated using Trizol and the quality/integrity of the total RNA verified using a Bioanalyzer (Agilent).\nMicroarray experiments were repeated two times with RNA from two experiments where HSCs were isolated from two different rats and for each condition triplicate samples were used. The “Detection Score” was used to determine expression using the Illumina platform. It is a statistical measure in the BeadStudio software (version 1.5.0.34), which is computed based on the Z-value of a gene relative to the Z-value of the negative controls. The Illumina data were adjusted (“normalized”) using a cubic spline function. […] The expression difference score, DiffScore, takes into account background noise and sample variability. […] Illumina expression arrays utilize gene-specific 50-mer oligonucleotide probes with an average of 30 replicates of each probe bead per individual array.\nThe Illumina platform described above was used to identify genome-wide effects of vitamin D3-activated VDR on TGFβ signaling in primary rat HSCs. Isolated primary HSCs were cultured on plastic tissue culture plates for 40 hours prior to treatment with or without vitamin D3 (1 nM) in the presence or absence of TGFβ1 (100 pM) for 24 hours. Cells were then harvested, total RNA extracted, and biotin labeled cRNA was prepared for hybridization to an Illumina Rat RefSeq version 1 genome array. […] The data generated from these arrays was processed using Illumina BeadStudio software to identify gene expression changes between the different samples. The vitamin D3 mediated changes on TGFβ1 signaling were identified by comparing TGFβ1 and co-treated TGFβ1/vitamin D3 samples."}}, "data": [{"substance": "TGF-β1: transforming growth factor beta 1; human recombinant from Sigma-Aldrich T7039", "values": [{"measurement": "Abcb4 gene expression", "setting": "hepatocytes", "value": 96.93}, {"measurement": "Abcg2 gene expression", "setting": "hepatocytes", "value": 913.91}, {"measurement": "Abcg4 gene expression", "setting": "hepatocytes", "value": 95.82}, {"measurement": "Ccl3 gene expression", "setting": "hepatocytes", "value": 540.53}, {"measurement": "Ccl4 gene expression", "setting": "hepatocytes", "value": 380.06}, {"measurement": "Ccl7 gene expression", "setting": "hepatocytes", "value": 1303.89}, {"measurement": "Ccl12 gene expression", "setting": "hepatocytes", "value": 368.02}, {"measurement": "Cd44 gene expression", "setting": "hepatocytes", "value": 680.16}, {"measurement": "Cxcr4 gene expression", "setting": "hepatocytes", "value": 164.68}, {"measurement": "Cyp1a2 gene expression", "setting": "hepatocytes", "value": 135.53}, {"measurement": "Cyp2d1 gene expression", "setting": "hepatocytes", "value": 147.68}, {"measurement": "Cyp2d5 gene expression", "setting": "hepatocytes", "value": 338.34}, {"measurement": "Cyp3a23/3a1 gene expression", "setting": "hepatocytes", "value": 380.28}, {"measurement": "Gstm1 gene expression", "setting": "hepatocytes", "value": 2230.15}, {"measurement": "Gstm2 gene expression", "setting": "hepatocytes", "value": 715.15}, {"measurement": "Gsto1 gene expression", "setting": "hepatocytes", "value": 1364.06}, {"measurement": "Il1a gene expression", "setting": "hepatocytes", "value": 675.41}, {"measurement": "Il1b gene expression", "setting": "hepatocytes", "value": 1551.37}, {"measurement": "Jak2 gene expression", "setting": "hepatocytes", "value": 669.28}, {"measurement": "Mmp9 gene expression", "setting": "hepatocytes", "value": 159.27}, {"measurement": "Nos2 gene expression", "setting": "hepatocytes", "value": 90.7}, {"measurement": "Slc7a6os gene expression", "setting": "hepatocytes", "value": 241.22}, {"measurement": "Slc25a4 gene expression", "setting": "hepatocytes", "value": 671.16}, {"measurement": "Slc25a19 gene expression", "setting": "hepatocytes", "value": 195.9}, {"measurement": "Slc28a1 gene expression", "setting": "hepatocytes", "value": 50.32}, {"measurement": "Slc28a2 gene expression", "setting": "hepatocytes", "value": 157.29}, {"measurement": "Slc35a4 gene expression", "setting": "hepatocytes", "value": 157.88}, {"measurement": "Slc37a4 gene expression", "setting": "hepatocytes", "value": 246.55}, {"measurement": "Tlr2 gene expression", "setting": "hepatocytes", "value": 978.98}, {"measurement": "Tlr7 gene expression", "setting": "hepatocytes", "value": 110.03}, {"measurement": "Ugt2b5 gene expression", "setting": "hepatocytes", "value": 155.32}, {"measurement": "cyp2a1 gene expression", "setting": "hepatocytes", "value": 216.95}, {"measurement": "cyp2c22 gene expression", "setting": "hepatocytes", "value": 2009.34}, {"measurement": "cyp4a10 gene expression", "setting": "hepatocytes", "value": 91.71}, {"measurement": "cyp24a1 gene expression", "setting": "hepatocytes", "value": 56.9}, {"measurement": "slc25a1 gene expression", "setting": "hepatocytes", "value": 1375.94}, {"measurement": "slc25a5 gene expression", "setting": "hepatocytes", "value": 2038.43}, {"measurement": "slc26a1 gene expression", "setting": "hepatocytes", "value": 181.21}, {"measurement": "slc39a1 gene expression", "setting": "hepatocytes", "value": 489.71}, {"measurement": "Mmp10 gene change", "setting": "primary HSCs", "value": "↓"}, {"measurement": "Mmp13 gene change", "setting": "primary HSCs", "value": "N/C"}]}]}
